These results are taken from PMC12631873 (Advanced Science, 2025).

Square brackets hold non-standard residues; d marks the D form. Peptide text beside a SMILES is read from it. * marks the point of attachment. X1 = CN1/C(=C/C=C/C=C/C2=[N+](CCCCCC(=O)*)c3ccc(S(=O)(=O)[O-])cc3C2(C)C)C(C)(C)c2cc(S(=O)(=O)O)ccc21; Hyp = O=C(O)[C@@H]1C[C@@H](O)CN1; Nlys = NCCCCNCC(=O)O; Ahx = NCCCCCC(=O)O

For one data set, the system named is cartilage. The data set is described as follows: In vivo and ex vivo fluorescence imaging of cartilage uptake and retention in nude mice. The arrangement: species or system mouse. From the text: All procedures for mouse maintenance and experiments strictly followed the policy of the Experimental Animal Ethics Committee of the Fifth Affiliated Hospital of Sun Yat‐sen University (protocol numbers: 00361, 00436). Balb/c nu mice (male, 10‐18 weeks old) were used for the general in vivo imaging experiments (Figure 3c–f; Figures S10–S14, Supporting Information). For Figure 3g,h and Figure S16 (Supporting Information), neonatal Balb/c mice (7 days old) were used. Female Balb/c mice (74 weeks old versus 12 weeks old) were used in the aged joint imaging experiment reported in Figure 4a–c and Figure S17 (Supporting Information). The RA model was made using female Balb/c mice (6‐8 weeks old) by intraperitoneal injection of an anti‐collagen antibody cocktail (1.5 mg per mouse; Chondrex, 53100) followed by selective subcutaneous injection of lipopolysaccharide (LPS, 12.5 µg per mouse, Chondrex, 53100) into the left hind paw three days later.^[ [30] ^] C57BL/6J mice (male, 6–8 weeks old) were used for the biocompatibility tests (Figures S23–S25, Supporting Information).
Typically, the fluorescence peptides or peptoids were prepared at a dose of 1 nmol (10 µM in 100 µL of 1× PBS buffer) and injected into the tail vein of each mouse 2 h prior to fluorescence imaging with an IVIS Spectrum imager (PerkinElmer Lumina III). For Figure 4, Figures S17 and S18 (Supporting Information) (joint aging and RA) and Figure S27 (Supporting Information), 2 nmol of Cy5‐(NlysO)7 (20 µM in 100 µL of 1× PBS buffer) were i.v. administered to each mouse. For 1‐week‐old neonatal mice, 1 nmol of Cy5‐(NlysO)7 (20 µM in 50 µL of 1× PBS buffer) was intravenously injected into each mouse. All in vivo imaging was performed 2 h post probe injection with the IVIS Spectrum imager (PerkinElmer, fluorescence: ex/em: 620/670 nm, exposure: 1 s, bing: 4, F/Stop: 2; field of view: A/B/C/Z). Mice were anesthesia with 3% isoflurane (RWD, R510‐22‐10) during image acquisition. Hair in the knee areas was removed before fluorescence imaging for mice in Figure 4a and Figure S17 (Supporting Information). The mice were euthanized following the final image acquisition and occasionally imaged again after skin and organ removal. Next, the airways, ankles, ears, paws, knees, tails, spines, and chest ribs were collected, imaged, and saved for subsequent histology analysis. All acquired fluorescence images were analyzed using the Living Image software (PerkinElmer). The fluorescence signal from each specimen was measured by quantifying the average radiation efficiency within the selected oval‐shaped regions‐of‐interest.
For the cartilage retention experiments (Figures S11 and S12, Supporting Information), Cy5‐(NlysO)7 (10 µM in 100 µL of 1× PBS buffer) was administered via tail vein to four male Balb/c nu mice (10 weeks old) at 2, 24, 48, and 96 h respectively, prior to fluorescence imaging using an IVIS Spectrum imaging system (ex/em: 620/670 nm, exposure: 1 s, bing: 4, F/Stop: 2). Following euthanasia, their cartilaginous tissues were harvested and imaged. The fluorescence images were analyzed and quantified as described above.

Data set [1] deals with human umbilical vein endothelial cells (HUVECs). The data set is described as follows: CCK-8 cell viability assay on HUVECs. The data set is classed as cell-based. Particulars: 0-40 µM, 24 h, n = 6 wells. How it is done: The cultures were maintained under standard conditions of 37 °C and 5% CO2. Chondrocytes collected from the articular cartilage of Sprague‐Dawley (SD) rats (purchased from Jennio Biotech, JNO‐720) were cultured in DMEM medium (Precell, PM150210). Human venous endothelial cells (HUVECs, purchased from iCell, iCell‐h110) were cultured in HUVEC medium (iCell, iCell‐h110‐001b). Both cells were seeded in 96‐well plates at a density of 5000 cells per well. The medium was supplemented with 10% fetal bovine serum (FBS, Precell, 164210) and penicillin‐streptomycin (1:100 diluted from a 100× stock solution, ThermoFisher, 15140122) to support cell growth and prevent bacterial contamination. When cell confluency reached 80%, peptidomimetic probes at increasing concentrations ranging from 0 to 40 µM were added to the cell culture medium (n = 4 wells for chondrocytes, n = 6 wells for HUVECs; blank control group: 0 µM; cells cultured without probe). Following 24 h (or 72 h) of incubation, the medium was removed, and the cells were rinsed three times with 1× PBS buffer. Cell viability was assessed using the CCK‐8 assay kit (GLPBIO, GK10001−5) according to the manufacturer's instructions. After further incubation for 4 h, the optical density (OD) of the CCK‐8 solution was measured at 450 nm using a microplate reader (PerkinElmer, EnVision). For live‐dead cell staining, rat chondrocytes (5000 cells per well seeded, n = 4 wells per group) were cultured for 24 h in medium (without fetal bovine serum) containing 40 µM of each peptidomimetic probe in a 96‐well plate. […] The fluorescence images were obtained using an EVOS M7000 imaging system (Light cubes: GFP and RFP, Objective: 10×). A microscopic image was taken from the live (Calcein AM) staining of each well, and the total fluorescence signals were quantified for each image. The mean fluorescence level of each probe's group was normalized to the blank control group to estimate the relative cell viability. […] The fluorescence intensity of each well was measured by the microplate reader (Ex / Em: 620 /662 nm). […]

For `CN1/C(=C/C=C/C=C/C2=[N+](CCCCCC(=O)NCCCCCC(=O)N[C@@H](CCCNC(=N)N)C(=O)N[C@@H](CCCNC(=N)N)C(=O)N[C@@H](CCCNC(=N)N)C(=O)N[C@@H](CCCNC(=N)N)C(=O)N[C@@H](CCCNC(=N)N)C(=O)N[C@@H](CCCNC(=N)N)C(=O)N[C@@H](CCCNC(=N)N)C(=O)N[C@@H](CCCNC(=N)N)C(N)=O)c3ccc(S(=O)(=O)[O-])cc3C2(C)C)C(C)(C)c2cc(S(=O)(=O)O)ccc21` [Cy5‐R8, reference compound], in the data set on cartilage (1 nmol tail-vein injection, monitored over 96 h), the “time post-injection that in vivo signals in knee joints and thoracic costal cartilage remained detectable” value is listed as “difficult to find after 2 h post‐injection”. Also, the “cytotoxicity to HUVECs (CCK-8), in words” value in data set [1] was “significant cytotoxicity”.
As for `CN1/C(=C/C=C/C=C/C2=[N+](CCCCCC(=O)NCCCCCC(=O)N(CCCCN)CC(=O)N3C[C@H](O)C[C@H]3C(=O)N(CCCCN)CC(=O)N3C[C@H](O)C[C@H]3C(=O)N(CCCCN)CC(=O)N3C[C@H](O)C[C@H]3C(=O)N(CCCCN)CC(=O)N3C[C@H](O)C[C@H]3C(=O)N(CCCCN)CC(=O)N3C[C@H](O)C[C@H]3C(=O)N(CCCCN)CC(=O)N3C[C@H](O)C[C@H]3C(=O)N(CCCCN)CC(=O)N3C[C@H](O)C[C@H]3C(N)=O)c3ccc(S(=O)(=O)[O-])cc3C2(C)C)C(C)(C)c2cc(S(=O)(=O)O)ccc21` [Cy5‐(NlysO)7] ({X1-Ahx}-[Nlys][Hyp][Nlys][Hyp][Nlys][Hyp][Nlys][Hyp][Nlys][Hyp][Nlys][Hyp][Nlys][Hyp]-NH2), the “in vivo retention in joints and ribs compared to peptide sequences Cy5-(GKO)7 and Cy5-R8” value with cartilage (1 nmol i.v., 0-96 h) is “stronger retention in the joints and ribs in vivo”. Also, the “fluorescence in cartilage-rich tissues (knee joints, ribs) 2-96 h post-injection” value with cartilage (1 nmol i.v., imaged at 2, 24, 48, 96 h) is recorded as “at 48 h but not 96 h”. In addition, the “cytotoxicity to HUVECs (CCK-8), in words” value is listed as “did not exhibit cytotoxicity” in data set [1] and “no apparent cytotoxicity at the tested concentrations” in data set [1] (listed as Cy5-(NlysO)7).
